Experimental data published in US10030016B2 (Sunesis Pharmaceuticals, Inc., priority 2009, dated 2018).
pEC50, pIC50: −log10 of the molar value. Like-named read-outs stand apart in the source and are kept apart here.

Experiments:
[1] = system: phospho-akt (Thr308) in PC-3 cells; assay: Inhibition of phospho-akt (Thr308) in PC-3 cells, MSD phospho-akt 308 ELISA kit; type: cell-based; settings: Homo sapiens
In short: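 Serum-free 2 h compound exposure of overnight-seeded PC-3 cells, threefold dilution series; lysates analysed on blocked MSD plates (3% BSA) for Thr308-phosphorylated Akt, normalised between DMSO and 5 μM wortmannin wells.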

[2] = target: PDK1 (Homo sapiens (Human), UniProt O15530); assay: PDK1 kinase assay (coupled PDK1/AKT/FAM-crosstide assay, IMAP fluorescence polarization); type: biochemical
Chain of PDK1 (O15530 51-359): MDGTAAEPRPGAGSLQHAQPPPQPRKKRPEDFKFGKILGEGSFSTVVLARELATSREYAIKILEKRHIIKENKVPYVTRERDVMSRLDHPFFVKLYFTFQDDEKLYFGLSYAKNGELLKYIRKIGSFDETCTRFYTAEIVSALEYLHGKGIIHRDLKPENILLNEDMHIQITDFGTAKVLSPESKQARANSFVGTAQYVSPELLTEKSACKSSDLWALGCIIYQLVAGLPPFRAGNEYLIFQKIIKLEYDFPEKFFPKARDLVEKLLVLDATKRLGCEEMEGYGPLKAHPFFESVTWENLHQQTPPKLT
In short: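 GST-tagged human PDK1 (aa 51-359, 0.75 nM) from insect cells activated unphosphorylated GST-AKT2 (aa 140-467–PIFtide fusion, 10 nM), which phosphorylated 100 nM FAM-crosstide; 40 μM ATP, pH 7.2 Tris/MgCl2, 30 min at 25° C. IMAP fluorescence polarization read-out; ΔmP versus compound concentration fitted with a 4-parameter curve.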

[3] = inhibition of P308 Akt in PC-3 cells, 2 hours, no serum, MSD, read-out: EC50
[4] = inhibition of phospo-PDK1 in vitro
[5] = inhibition of P308 Akt in PC-3 cells using MSD, 2 hours, no serum, read-out: EC50
[6] = PC-3, 2 h, inhibition of P308 Akt in PC-3 cells using MSD, 2 hours, no serum, read-out: EC50

| pEC50 [1, 3] | pIC50 [2, 4] | pEC50 [1, 5] | pIC50 ([2]; inhibition of PDK1 in vitro) | SMILES | further results |
| --- | --- | --- | --- | --- | --- |
| > 6.00 | > 7.00 | – | – | N#Cc1cnc(NCc2ccc(-c3cnc4[nH]nc(N)c4c3)cc2)c(C(=O)NCc2cncc(F)c2)n1 [Example 26, 3-(4-(3-amino-1H-pyrazolo[3,4-b]pyridin-5-yl)benzylamino)-6-cyano-N-((5-fluoropyridin-3-yl)methyl)pyrazine-2-carboxamide] | – |
| > 6.00 | > 7.00 | – | – | C[C@H](NC(=O)c1nc(C#N)cnc1NCc1ccc(-c2cn(C)c3ncnc(N)c23)cc1)c1ccc(F)c(F)c1 [Example 27, (S)-3-(4-(4-amino-7-methyl-7H-pyrrolo[2,3-d]pyrimidin-5-yl)benzylamino)-6-cyano-N-(1-(3,4-difluorophenyl)ethyl)pyrazine-2-carboxamide] | – |
| > 6.00 | > 7.00 | – | – | Cn1cc(-c2ccc(CNc3ncc(C#N)nc3C(=O)NCc3cncc(F)c3)cc2)c2c(N)ncnc21 [Example 28, 3-(4-(4-amino-7-methyl-7H-pyrrolo[2,3-d]pyrimidin-5-yl)benzylamino)-6-cyano-N-((5-fluoropyridin-3-yl)methyl)pyrazine-2-carboxamide] | – |
| > 6.00 | > 7.00 | – | – | N#Cc1cnc(NCc2ccc(-c3cnc4[nH]nc(N)c4c3)cc2)c(C(=O)Nc2ccc(F)cc2)n1 [Example 29, 3-(4-(3-amino-1H-pyrazolo[3,4-b]pyridin-5-yl)benzylamino)-6-cyano-N-(4-fluorophenyl) pyrazine-2-carboxamide] | – |
| > 6.00 | > 7.00 | – | – | Nc1n[nH]c2ncc(-c3ccc(CNc4ncc(C(F)(F)F)cc4C(=O)N4CCc5cc(F)ccc54)cc3)cc12 [Example 30, (2-(4-(3-amino-1H-pyrazolo[3,4-b]pyridin-5-yl)benzylamino)-5-(trifluoromethyl)pyridin-3-yl)(5-fluoroindolin-1-yl)methanone] | – |
| > 6.00 | > 7.00 | – | – | N#Cc1cnc(NCc2ccc(-c3cnc4[nH]nc(N)c4c3)cc2)c(C(=O)NCc2ccc(F)c(F)c2)n1 [Example 31, 3-(4-(3-amino-1H-pyrazolo[3,4-b]pyridin-5-yl)benzylamino)-6-cyano-N-(3,4-difluorobenzyl) pyrazine-2-carboxamide] | – |
| > 6.00 | > 7.00 | – | – | C[C@H](NC(=O)c1nc(C#N)cnc1NCc1ccc(-c2cnc3[nH]nc(N)c3c2)cc1)c1ccc(F)cc1 [Example 32, (S)-3-(4-(3-amino-1H-pyrazolo[3,4-b]pyridin-5-yl)benzylamino)-6-cyano-N-(1-(4-fluorophenyl)ethyl) pyrazine-2-carboxamide] | – |
| > 6.00 | > 7.00 | – | – | N#Cc1cnc(NCc2ccc(-c3cnc4[nH]nc(N)c4c3)cc2)c(C(=O)NCc2ccc(F)cc2)n1 [Example 33, 3-(4-(3-amino-1H-pyrazolo[3,4-b]pyridin-5-yl)benzylamino)-6-cyano-N-(4-fluorobenzyl) pyrazine-2-carboxamide] | – |
| > 6.00 | > 7.00 | – | – | N#Cc1cnc(NCc2ccc(-c3cnc(N)cn3)cc2)c(C(=O)Nc2ccc(F)cc2)n1 [Example 34, 3-(4-(5-aminopyrazin-2-yl)benzylamino)-6-cyano-N-(4-fluorophenyl) pyrazine-2-carboxamide] | – |
| > 6.00 | > 7.00 | – | – | N#Cc1cnc(NCc2ccc(-c3cnc4[nH]nc(N)c4c3)cc2)c(C(=O)Nc2ccc(F)cc2)c1 [Example 35, 2-(4-(3-amino-1H-pyrazolo[3,4-b]pyridin-5-yl)benzylamino)-5-cyano-N-(4-fluorophenyl) nicotinamide] | – |
| > 6.00 | > 7.00 | – | – | CCOC(=O)Nc1n[nH]c2ncc(-c3ccc(CNc4ncc(C#N)nc4C(=O)N[C@@H](C)c4ccc(F)c(F)c4)cc3)cc12 [Example 36, (S)-ethyl 5-(4-((5-cyano-3-(1-(3,4-difluorophenyl)ethylcarbamoyl)pyrazin-2-ylamino)methyl)phenyl)-1H-pyrazolo[3,4-b]pyridin-3-ylcarbamate] | – |
| > 6.00 | > 7.00 | – | – | C[C@H](NC(=O)c1nc(C#N)cnc1NCc1ccc(-c2cnc3[nH]nc(NC(=O)c4ccccc4)c3c2)cc1)c1ccc(F)c(F)c1 [Example 37, (S)-3-(4-(3-benzamido-1H-pyrazolo[3,4-b]pyridin-5-yl)benzylamino)-6-cyano-N-(1-(3,4-difluorophenyl)ethyl)pyrazine-2-carboxamide] | – |
| > 6.00 | > 7.00 | – | – | Nc1n[nH]c2ncc(-c3ccc(CNc4ncc(C(F)(F)F)cc4C(=O)Nc4ccc(F)cc4)cc3)cc12 [Example 38, 2-[4-(3-Amino-1H-pyrazolo[3,4-b]pyridin-5-yl)-benzylamino]-N-(4-fluoro-phenyl)-5-trifluoromethyl-nicotinamide] | – |
| > 6.00 | > 7.00 | – | – | Nc1n[nH]c2ncc(-c3ccc(CNc4ncc(C(F)(F)F)nc4C(=O)Nc4ccc(F)cc4)cc3)cc12 [Example 39, 3-(4-(3-amino-1H-pyrazolo[3,4-b]pyridin-5-yl)benzylamino)-N-(4-fluorophenyl)-6-(trifluoromethyl)pyrazine-2-carboxamide] | – |
| > 6.00 | > 7.00 | – | – | Nc1n[nH]c2ncc(-c3ccc(CNc4nccc5ncn(Cc6ccc(F)c(F)c6)c(=O)c45)cc3)cc12 [Example 40, 5-(4-(3-amino-1H-pyrazolo[3,4-b]pyridin-5-yl)benzylamino)-3-(3,4-difluorobenzyl)pyrido[4,3-d]pyrimidin-4(3H)-one] | – |
| – | – | > 6.00 | > 7.00 | C[C@H](NC(=O)c1cc(C#N)cnc1NCc1ccc(-c2c[nH]c3ncnc(N)c23)cc1)c1ccc(F)cc1 [Example 41, 2-[4-(4-Amino-7H-pyrrolo[2,3-d]pyrimidin-5-yl)-benzylamino]-5-cyano-N-[(S)-1-(4-fluoro-phenyl)-ethyl]-nicotinamide] | – |
| – | – | > 6.00 | > 7.00 | C[C@H](NC(=O)c1nc(C#N)cnc1N[C@H](C)c1ccc(-c2cnc3[nH]nc(N)c3c2)cc1)c1ccc(F)c(F)c1 [Example 42, 3-((R)-1-(4-(3-amino-1H-pyrazolo[3,4-b]pyridin-5-yl)phenyl)ethylamino)-6-cyano-N—((S)-1-(3,4-difluorophenyl)ethyl)pyrazine-2-carboxamide] | – |
| – | – | 5.00 to 6.00 | 5.30 to 6.00 | N#Cc1cnc(NCc2ccc(-c3c[nH]c4ncnc(N)c34)cc2)c(-c2ncco2)c1 [Example 43, 6-(4-(4-amino-7H-pyrrolo[2,3-d]pyrimidin-5-yl)benzylamino)-5-(oxazol-2-yl)nicotinonitrile] | – |
| – | – | – | – | COC(=O)C[C@@H](Nc1ncc(C#N)cc1C(=O)N[C@@H](C)c1ccc(F)cc1)c1ccc(-c2c[nH]c3ncnc(N)c23)cc1 [Example 44, (R)-methyl 3-(4-(4-amino-7H-pyrrolo[2,3-d]pyrimidin-5-yl)phenyl)-3-(5-cyano-3-((S)-1-(4-fluorophenyl)ethylcarbamoyl)pyridin-2-ylamino)propanoate] | pEC50 ([1]; PC-3, 2 h): 5.00 to 6.00; pIC50 [2]: > 7.00 |
| – | – | – | 6.00 to 7.00 | C[C@H](NC(=O)c1cc(C#N)cnc1N[C@H](CC(=O)O)c1ccc(-c2c[nH]c3ncnc(N)c23)cc1)c1ccc(F)cc1 [Example 45, (R)-3-(4-(4-amino-7H-pyrrolo[2,3-d]pyrimidin-5-yl)phenyl)-3-(5-cyano-3-((S)-1-(4-fluorophenyl)ethylcarbamoyl)pyridin-2-ylamino)propanoic acid] | pEC50 [1, 6]: < 5.00 |
| – | – | < 5.00 | > 7.00 | C[C@H](NC(=O)c1cc(C#N)cnc1N[C@H](CC(N)=O)c1ccc(-c2c[nH]c3ncnc(N)c23)cc1)c1ccc(F)cc1 [Example 46, 2-((R)-3-amino-1-(4-(4-amino-7H-pyrrolo[2,3-d]pyrimidin-5-yl)phenyl)-3-oxopropylamino)-5-cyano-N—((S)-1-(4-fluorophenyl)ethyl)nicotinamide] | – |
| – | – | < 5.00 | > 7.00 | CNC(=O)C[C@@H](Nc1ncc(C#N)cc1C(=O)N[C@@H](C)c1ccc(F)cc1)c1ccc(-c2c[nH]c3ncnc(N)c23)cc1 [Example 47, 2-((R)-1-(4-(4 - amino-7H-pyrrolo[2,3-d]pyrimidin-5-yl)phenyl)-3-(methylamino)-3-oxopropylamino)-5-cyano-N-((S)-1-(4-fluorophenyl)ethyl)nicotinamide] | – |
| – | – | – | 6.00 to 7.00 | C[C@H](NC(=O)c1cc(C#N)cnc1N[C@H](CC(=O)N(C)C)c1ccc(-c2c[nH]c3ncnc(N)c23)cc1)c1ccc(F)cc1 [Example 48, 2-((R)-1-(4-(4 - amino-7H-pyrrolo[2,3-d]pyrimidin-5-yl)phenyl)-3-(dimethylamino)-3-oxopropylamino)-5-cyano-N-((S)-1-(4-fluorophenyl)ethyl)nicotinamide] | pEC50 [1, 6]: 5.00 to 6.00 |
| – | – | < 5.00 | > 7.00 | Cc1cnc2c3cc(-c4ccc(CNc5ncccc5C(=O)N[C@@H](C)c5ccc(F)c(F)c5)s4)ccc3ncn12 [Example 49, (S)-N-(1-(3,4-difluorophenyl)ethyl)-2-((5-(3-methyl-imidazo[1,2-c]quinazolin-9-yl)thiophen-2-ylmethyl)amino) nicotinamide] | – |
| – | – | < 5.00 | < 5.30 | NC(=O)c1cc(CNc2ncccc2C(=O)NCc2ccc(F)c(F)c2)ccc1-n1ccnc1 [Example 50, 2-(3-carbamoyl-4-(1H-imidazol-1-yl)benzylamino)-N-(3,4-difluorobenzyl)nicotinamide] | – |
| – | – | < 5.00 | < 5.30 | C[C@H](NC(=O)c1cccnc1Nc1ccc(-c2ccc3ncnc(N)c3c2)s1)c1ccc(F)c(F)c1 [Example 51, (S)-2-(5-(4-aminoquinazolin-6-yl)thiophen-2-ylamino)-N-(1-(3,4-difluorophenyl)ethyl)nicotinamide] | – |
